# Measurements reported in patent US20110182982A1, “LIPOSOME TREATMENT OF VIRAL INFECTIONS” (University of Oxford, priority 2006, published 2011).
# Key:
# Experiment in all cases: p24 secretion of HIV-1-infected PBMCs
# Type in all cases: cell-based
# Settings in all cases: for % p24 secretion Week 1-rb / % p24 secretion Week 2-rb / % p24 secretion Week 3-rb / % p24 secretion Week 4-rb: treatment removed 2 weeks
# HIV-1 isolate: 93IN101 = tested on: HIV-1 isolate: 93IN101
# Method: (§1) Clearance of HIV-1 primary isolates from infected human cells by NB-DNJ was assessed using phytohemagglutinin (PHA)-activated peripheral blood mononuclear cells (PBMCs) as indicator cells and the determination of p24 antigen production as the end point.
# (§2) PBMCs from four normal (uninfected) donors were isolated, pooled, and stimulated with PHA (5 μg/ml) for 48 h followed by PHA plus interleukin-2 (40 U/ml) for 72 h in RPMI 1640 medium containing 10% heat-inactivated fetal bovine serum (FBS), 100 U of penicillin per ml, 100 μg of streptomycin per ml, and 2 mM L-glutamine. All experiments were performed in 96-well microtiter plates. To infect cells, 100 μl of PHA-activated PBMCs (5×10^5/ml) was added to each well, after which an equal volume containing 100 50% tissue culture infective doses (TCID50) of primary isolate stock was added. After an overnight incubation, the cells were washed three times with tissue culture medium, and finally re-suspended in medium containing the appropriate liposome treatment or free NB-DNJ. On day 7, approximately 10-30% of the culture volume containing secreted HIV-1 virions was used to infect naïve PBMCs for a second round of infection and treatment (volume transferred was calculated to be the volume necessary for the untreated control of that isolate to infect naïve cells at a TCID50=100). Rounds of treatment and infection of naïve cells were continued over four weeks, and at every time point cellular supernatant containing secreted virions was isolated and used in capture ELISAs to determine p24 concentration (measure of secretion). Additionally, supernatant isolated at each time point throughout treatment was used to infect naïve PBMCs (TCID50=100) for two weeks with no further treatment, which allowed for the observation of a rebound in viral activity.
# (§3) PBMCs infected with 8 primary isolates (listed in Table 3) were incubated in the presence of free NB-DNJ (concentrations ranging 0-1 mM) or liposome-encapsulated NB-DNJ (0-3.75 μM, final lipid concentration of 50 μM).
# HIV-1 isolate: HT92599 = tested on: HIV-1 isolate: HT92599
# Method: as §1, §2, §3
# HIV-1 isolate: 89.6 = tested on: HIV-1 isolate: 89.6
# Method: as §1, §2, §3
# HIV-1 isolate: UG92046 = tested on: HIV-1 isolate: UG92046
# Method: as §1, §2, §3
# [1] = 1 mM free in medium, first week
# [2] = Human immunodeficiency virus 1, PBMC, free, three rounds of treatment
structure (smiles),measurement,setting,value
"CCCCN1C[C@H](O)[C@@H](O)[C@H](O)[C@H]1CO [NB-DNJ, N-butyl-1,5-dideoxy-1,5-imino-D-glucitol]",decrease in secretion,HIV-1 isolate: 93IN101; [1],50%
same,% p24 secretion Week 1,HIV-1 isolate: 93IN101; NB-DNJ 250 uM,106%
same,% p24 secretion Week 2,HIV-1 isolate: 93IN101; NB-DNJ 250 uM,81%
same,% p24 secretion Week 3,HIV-1 isolate: 93IN101; NB-DNJ 250 uM,78%
same,% p24 secretion Week 4,HIV-1 isolate: 93IN101; NB-DNJ 250 uM,66%
same,% p24 secretion Week 1-rb,HIV-1 isolate: 93IN101; NB-DNJ 250 uM,96%
same,% p24 secretion Week 2-rb,HIV-1 isolate: 93IN101; NB-DNJ 250 uM,88%
same,% p24 secretion Week 3-rb,HIV-1 isolate: 93IN101; NB-DNJ 250 uM,81%
same,% p24 secretion Week 4-rb,HIV-1 isolate: 93IN101; NB-DNJ 250 uM,72%
same,% p24 secretion Week 1,HIV-1 isolate: 93IN101; NB-DNJ 500 uM,75%
same,% p24 secretion Week 2,HIV-1 isolate: 93IN101; NB-DNJ 500 uM,45%
same,% p24 secretion Week 3,HIV-1 isolate: 93IN101; NB-DNJ 500 uM,7%
same,% p24 secretion Week 4,HIV-1 isolate: 93IN101; NB-DNJ 500 uM,2%
same,% p24 secretion Week 1-rb,HIV-1 isolate: 93IN101; NB-DNJ 500 uM,88%
same,% p24 secretion Week 2-rb,HIV-1 isolate: 93IN101; NB-DNJ 500 uM,37%
same,% p24 secretion Week 3-rb,HIV-1 isolate: 93IN101; NB-DNJ 500 uM,11%
same,% p24 secretion Week 4-rb,HIV-1 isolate: 93IN101; NB-DNJ 500 uM,0%
same,% p24 secretion Week 1,HIV-1 isolate: 93IN101; NB-DNJ 1000 uM,67%
same,% p24 secretion Week 2,HIV-1 isolate: 93IN101; NB-DNJ 1000 uM,17%
same,% p24 secretion Week 3,HIV-1 isolate: 93IN101; NB-DNJ 1000 uM,3%
same,% p24 secretion Week 4,HIV-1 isolate: 93IN101; NB-DNJ 1000 uM,0%
same,% p24 secretion Week 1-rb,HIV-1 isolate: 93IN101; NB-DNJ 1000 uM,51%
same,% p24 secretion Week 2-rb,HIV-1 isolate: 93IN101; NB-DNJ 1000 uM,4%
same,% p24 secretion Week 3-rb,HIV-1 isolate: 93IN101; NB-DNJ 1000 uM,1%
same,% p24 secretion Week 4-rb,HIV-1 isolate: 93IN101; NB-DNJ 1000 uM,0%
same,reduction in viral secretion,HIV-1 isolate: HT92599; [1],50%
same,% p24 secretion Week 1,HIV-1 isolate: HT92599; NB-DNJ 250 uM,99%
same,% p24 secretion Week 2,HIV-1 isolate: HT92599; NB-DNJ 250 uM,84%
same,% p24 secretion Week 3,HIV-1 isolate: HT92599; NB-DNJ 250 uM,88%
same,% p24 secretion Week 4,HIV-1 isolate: HT92599; NB-DNJ 250 uM,81%
same,% p24 secretion Week 1-rb,HIV-1 isolate: HT92599; NB-DNJ 250 uM,93%
same,% p24 secretion Week 2-rb,HIV-1 isolate: HT92599; NB-DNJ 250 uM,99%
same,% p24 secretion Week 3-rb,HIV-1 isolate: HT92599; NB-DNJ 250 uM,95%
same,% p24 secretion Week 4-rb,HIV-1 isolate: HT92599; NB-DNJ 250 uM,88%
same,% p24 secretion Week 1,HIV-1 isolate: HT92599; NB-DNJ 500 uM,53%
same,% p24 secretion Week 2,HIV-1 isolate: HT92599; NB-DNJ 500 uM,19%
same,% p24 secretion Week 3,HIV-1 isolate: HT92599; NB-DNJ 500 uM,8%
same,% p24 secretion Week 4,HIV-1 isolate: HT92599; NB-DNJ 500 uM,1%
same,% p24 secretion Week 1-rb,HIV-1 isolate: HT92599; NB-DNJ 500 uM,67%
same,% p24 secretion Week 2-rb,HIV-1 isolate: HT92599; NB-DNJ 500 uM,27%
same,% p24 secretion Week 3-rb,HIV-1 isolate: HT92599; NB-DNJ 500 uM,17%
same,% p24 secretion Week 4-rb,HIV-1 isolate: HT92599; NB-DNJ 500 uM,1%
same,% p24 secretion Week 1,HIV-1 isolate: HT92599; NB-DNJ 1000 uM,55%
same,% p24 secretion Week 2,HIV-1 isolate: HT92599; NB-DNJ 1000 uM,10%
same,% p24 secretion Week 3,HIV-1 isolate: HT92599; NB-DNJ 1000 uM,3%
same,% p24 secretion Week 4,HIV-1 isolate: HT92599; NB-DNJ 1000 uM,0%
same,% p24 secretion Week 1-rb,HIV-1 isolate: HT92599; NB-DNJ 1000 uM,52%
same,% p24 secretion Week 2-rb,HIV-1 isolate: HT92599; NB-DNJ 1000 uM,15%
same,% p24 secretion Week 3-rb,HIV-1 isolate: HT92599; NB-DNJ 1000 uM,6%
same,% p24 secretion Week 4-rb,HIV-1 isolate: HT92599; NB-DNJ 1000 uM,1%
same,reduction in viral secretion,HIV-1 isolate: 89.6; [1],75%
same,IC50,HIV-1 isolate: 89.6; [2],250 µM
same,IC90,HIV-1 isolate: 89.6; [2],375 µM
same,% p24 secretion Week 1,HIV-1 isolate: 89.6; NB-DNJ 250 uM,98%
same,% p24 secretion Week 2,HIV-1 isolate: 89.6; NB-DNJ 250 uM,79%
same,% p24 secretion Week 3,HIV-1 isolate: 89.6; NB-DNJ 250 uM,54%
same,% p24 secretion Week 4,HIV-1 isolate: 89.6; NB-DNJ 250 uM,59%
same,% p24 secretion Week 1-rb,HIV-1 isolate: 89.6; NB-DNJ 250 uM,81%
same,% p24 secretion Week 2-rb,HIV-1 isolate: 89.6; NB-DNJ 250 uM,70%
same,% p24 secretion Week 3-rb,HIV-1 isolate: 89.6; NB-DNJ 250 uM,73%
same,% p24 secretion Week 4-rb,HIV-1 isolate: 89.6; NB-DNJ 250 uM,66%
same,% p24 secretion Week 1,HIV-1 isolate: 89.6; NB-DNJ 500 uM,36%
same,% p24 secretion Week 2,HIV-1 isolate: 89.6; NB-DNJ 500 uM,16%
same,% p24 secretion Week 3,HIV-1 isolate: 89.6; NB-DNJ 500 uM,2%
same,% p24 secretion Week 4,HIV-1 isolate: 89.6; NB-DNJ 500 uM,0%
same,% p24 secretion Week 1-rb,HIV-1 isolate: 89.6; NB-DNJ 500 uM,35%
same,% p24 secretion Week 2-rb,HIV-1 isolate: 89.6; NB-DNJ 500 uM,8%
same,% p24 secretion Week 3-rb,HIV-1 isolate: 89.6; NB-DNJ 500 uM,0%
same,% p24 secretion Week 4-rb,HIV-1 isolate: 89.6; NB-DNJ 500 uM,0%
same,% p24 secretion Week 1,HIV-1 isolate: 89.6; NB-DNJ 1000 uM,25%
same,% p24 secretion Week 2,HIV-1 isolate: 89.6; NB-DNJ 1000 uM,1%
same,% p24 secretion Week 3,HIV-1 isolate: 89.6; NB-DNJ 1000 uM,1%
same,% p24 secretion Week 4,HIV-1 isolate: 89.6; NB-DNJ 1000 uM,0%
same,% p24 secretion Week 1-rb,HIV-1 isolate: 89.6; NB-DNJ 1000 uM,21%
same,% p24 secretion Week 2-rb,HIV-1 isolate: 89.6; NB-DNJ 1000 uM,0%
same,% p24 secretion Week 3-rb,HIV-1 isolate: 89.6; NB-DNJ 1000 uM,0%
same,% p24 secretion Week 4-rb,HIV-1 isolate: 89.6; NB-DNJ 1000 uM,0%
same,% p24 secretion Week 1,HIV-1 isolate: UG92046; NB-DNJ 250 uM,91%
same,% p24 secretion Week 2,HIV-1 isolate: UG92046; NB-DNJ 250 uM,115%
same,% p24 secretion Week 3,HIV-1 isolate: UG92046; NB-DNJ 250 uM,91%
same,% p24 secretion Week 4,HIV-1 isolate: UG92046; NB-DNJ 250 uM,79%
same,% p24 secretion Week 1-rb,HIV-1 isolate: UG92046; NB-DNJ 250 uM,99%
same,% p24 secretion Week 2-rb,HIV-1 isolate: UG92046; NB-DNJ 250 uM,92%
same,% p24 secretion Week 3-rb,HIV-1 isolate: UG92046; NB-DNJ 250 uM,94%
same,% p24 secretion Week 4-rb,HIV-1 isolate: UG92046; NB-DNJ 250 uM,89%
same,% p24 secretion Week 1,HIV-1 isolate: UG92046; NB-DNJ 500 uM,79%
same,% p24 secretion Week 2,HIV-1 isolate: UG92046; NB-DNJ 500 uM,39%
same,% p24 secretion Week 3,HIV-1 isolate: UG92046; NB-DNJ 500 uM,10%
same,% p24 secretion Week 4,HIV-1 isolate: UG92046; NB-DNJ 500 uM,0%
same,% p24 secretion Week 1-rb,HIV-1 isolate: UG92046; NB-DNJ 500 uM,75%
same,% p24 secretion Week 2-rb,HIV-1 isolate: UG92046; NB-DNJ 500 uM,43%
same,% p24 secretion Week 3-rb,HIV-1 isolate: UG92046; NB-DNJ 500 uM,15%
same,% p24 secretion Week 4-rb,HIV-1 isolate: UG92046; NB-DNJ 500 uM,0%
same,% p24 secretion Week 1,HIV-1 isolate: UG92046; NB-DNJ 1000 uM,64%
same,% p24 secretion Week 2,HIV-1 isolate: UG92046; NB-DNJ 1000 uM,15%
same,% p24 secretion Week 3,HIV-1 isolate: UG92046; NB-DNJ 1000 uM,3%
same,% p24 secretion Week 4,HIV-1 isolate: UG92046; NB-DNJ 1000 uM,0%
same,% p24 secretion Week 1-rb,HIV-1 isolate: UG92046; NB-DNJ 1000 uM,64%
same,% p24 secretion Week 2-rb,HIV-1 isolate: UG92046; NB-DNJ 1000 uM,21%
same,% p24 secretion Week 3-rb,HIV-1 isolate: UG92046; NB-DNJ 1000 uM,1%
same,% p24 secretion Week 4-rb,HIV-1 isolate: UG92046; NB-DNJ 1000 uM,0%
